{"source": "patent US9732131B2", "about": "“Identification and use of novopeptides for the treatment of cancer” (Calviri Inc., priority 2006, dated 2017)", "key": {"[1]": {"system": "breast tumor driven by mutant rat Her2 gene", "test": "Prophylactic immunization in BALB-neuT transgenic breast cancer model", "type": "in vivo", "details": "BALB-neuT mice, genetic prime/boost + KLH-peptide boost; vs non-treated and negative control (FIGS. 13a, 13b)", "source_text": "From the candidate FS peptide sequences disclosed in Table 8 two candidates were selected for in vivo confirmation. The candidates chosen will be referred to herein as FS RBM (SEQ ID NO:232) and FS THAP2 (SEQ ID NO:238), these novopeptides having upstream in-frame portions that align with the mouse Rbm14 and Thap2 genes, respectively. […] The BALB-neuT mouse model is a transgenic mouse breast cancer model, in which all ten mammary glands of a female mouse will develop breast tumor around 20 weeks of age, driven by overexpression of a mutant rat Her2 gene.\nFS RBM and FS THAP2 peptides were tested in vivo as candidate peptide components of a prophylactic anti-cancer vaccine. BALB-neuT mice were immunized at 4 to 6 weeks old (primary genetic immunization); 8 to 10 weeks old (boost genetic immunization) and 12 to 14 weeks old (boost peptide immunization). All genetic immunization had the same genetic adjuvant for each bullet for gene gun immunization: 250 ng mixed LTA-LTB/pCMVi and 2.5 μgCpG 2216. All mice received two shots at each ear by gene gun for each genetic immunization. At primary immunization, the vaccine group got two shots of bullets containing 100 ng (high dosage) or 20 ng (low dosage) mixed FS antigen plasmids per bullet; while negative group got two shots of 100 ng mixed empty plasmids for each shot. […]"}, "B16 melanoma line": {"system": "B16 melanoma line", "test": "Therapeutic gene vaccine encoding SMC1A FS, B16 melanoma mouse tumor model", "type": "in vivo, mice", "details": "B16 inoculated, gene vaccine one day later", "procedure": "The FS was tested for therapeutic value as a vaccine in the mouse tumor model. The B16 melanoma line was inoculated into mice. One day later the mice were vaccinated with a gene vaccine encoding the FS."}, "4T1 tumor cells": {"system": "4T1 tumor cells", "test": "Prophylactic genetic immunization, BALB/C-4T1 mouse transplant breast tumor model", "type": "in vivo", "details": "three peptide components given together by genetic immunization at 7 and 13 weeks; challenge 5,000 4T1 cells; vs empty vector (FIG. 15)", "method": "Primary genetic immunization was administered with the three peptide components (10 mice) or with empty vector (negative controls, 4 mice) at 7 weeks old and 13 weeks old. Three weeks after the last immunization, all mice were challenged with 5,000 4T1 tumor cells. Tumor size was measured each day after palpable tumors appeared. […] Error bars show standard error."}, "4T1 breast tumor cells": {"system": "4T1 breast tumor cells", "test": "Prophylactic genetic immunization, 4T1 breast tumor challenge", "type": "in vivo", "details": "Balb/c mice, 3.2 ng FS 1-78 LEE + 1 μg pGM-CSF, boost, challenge 1×10^4 4T1 cells; vs pGM-CSF alone and FS 6-21 controls (FIG. 5)", "source_text": "Immunization with a single FS-novopeptide identified based on one tumor type may be immunoprotective against a different tumor type in a different mouse strain. Disclosed herein is a procedure for such immunization. Immunization with novopeptides common to multiple types of tumors can result in cross-protection, obviating the requirement that a patient must develop a tumor before a personalized vaccine can be formulated, prepared and administered. Balb/c mice were immunized in the same manner as the C57BL6 mice in Example 2 above, with 3.2 ng of FS 1-78 LEE+1 μg of pGM-CSF, and boosted with the same gene vaccine after 2 weeks. One week after the boost, mice were challenged with 1×10^4 4 T1 breast tumor cells. Seventeen days after 4T1 challenge, tumors started to grow."}, "[2]": {"system": "B16 F10 melanoma tumor cells", "test": "Prophylactic genetic immunization (gene gun LEE + pGM-CSF), B16 F10 melanoma challenge", "type": "in vivo, C57BL6 mice"}, "SW480 tumor cells": {"system": "SW480 tumor cells", "test": "CTL assay (Cr release) with CTLs activated against novopeptide", "type": "cell-based, human", "details": "MHC-matched SW480 cells pulsed with peptide vs unpulsed (FIG. 9)", "source_text": "These CTL's may then be tested for reactivity against each of (1) cancerous cells, and (2) non-cancerous cells, each having an MHC or HLA type matching that of the MHC or HLA for which the CTL's are specific.\nThis is a standard Cr release assay that anyone skilled in the art would be able to do."}, "[3]": {"system": "serum antibodies of cancer patients", "test": "ELISA of cancer patient serum for reactivity with novopeptide", "type": "binding, human", "details": "serum from 23 cancer patients, standard ELISA (FIG. 8)", "source_text": "Disclosed herein are embodiments of methods for performing novopeptide immunological screens. For example, disclosed herein are embodiments of methods for immunologically screening for the existence of a B cell response to a particular novopeptide comprising assaying for the presence of antibodies reactive to that novopeptide in serum samples from individuals having a type of cancerous cells predicted to express the novopeptide, and for the absence, or presence below a prespecified titer, of such reactive antibodies in serum obtained from one or more individuals not having such cancer. The presence in sera of antibodies reactive to a given novopeptide may be detected and quantified by an ELISA assay in which the novopeptide is adsorbed onto a solid surface, serum is applied, and antibodies remaining bound to the novopeptides after washing are detected. […] However, in at least some individuals, a strong immune response develops late in the tumor progression process. Therefore, serum antibody reactivity to a candidate novopeptide, even if detected in the serum of only one or a few individuals having the cancer type in question, is strong evidence that the novopeptide is expressed in that cancer type.\nNovopeptides in the FS database in association with particular tumor cell types were identified. […]"}}}
{"substance": "FS RBM: mouse novopeptide whose upstream in-frame portion aligns with the mouse Rbm14 gene (GRVIECDVVKGSCQDGEAVHWKSAPGGHRAGDPLTLRAVREGAGM; Synthetic or recombinant sequence)", "values": [{"measurement": "inhibition of first tumor onset and tumor progression", "setting": "[1]", "value": "significant prophylactic protection"}]}
{"substance": "FS THAP2: mouse novopeptide whose upstream in-frame portion aligns with the mouse Thap2 gene (FDFCTHIKSLVTFGLFLRGAGCSPSSFLL; Synthetic or recombinant sequence)", "values": [{"measurement": "inhibition of first tumor onset and tumor progression", "setting": "[1]", "value": "significant prophylactic protection"}]}
{"substance": "NGSGCSGVYCHEEPQGEDSSV [FS SMC-1A, novopeptide from a frameshift of the SMC1A gene]", "values": [{"measurement": "therapeutic effect on tumor size progression", "setting": "B16 melanoma line; relative to control (FIG. 12a)", "value": "no therapeutic effect on tumor size progression"}, {"measurement": "survival time", "setting": "B16 melanoma line; relative to control (FIG. 12b)", "value": "did not show significant improvement in survival time"}]}
{"substance": "SEQ ID NO: 312: third peptide of Table 9, frameshift predicted from mouse microsatellite locus (YFSCDKRCIKHYAGNKSLLTFSGY; Synthetic or recombinant sequence)", "values": [{"measurement": "prophylactic inhibition of tumor progression (tumor size)", "setting": "4T1 tumor cells", "value": "effective in prophylactically inhibiting tumor progression"}]}
{"substance": "IPRMQPQASAnhcqllkvmva* (LLMCQCQLYQPWMCKEYYRLL; Synthetic or recombinant peptide) [FS 1-78, frameshift novopeptide from B16-F10, 396 bp deletion in a zinc finger protein gene]", "values": [{"measurement": "4T1 tumor growth", "setting": "4T1 breast tumor cells", "value": "significantly delayed and reduced 4T1 tumor growth"}, {"measurement": "tumor growth", "setting": "[2]; C57BL6 mice, gene gun FS 1-78 LEE + 1 μg pGM-CSF, boost 2 weeks later, challenge 1×10^5 B16 F10 cells, vs empty LEE and no immunization (FIG. 4)", "value": "tumor growth was markedly delayed"}, {"measurement": "tumor volume", "setting": "[2]; highest dose (3.2 ng) of FS 1-78 LEE (FIG. 4)", "value": "tumor volume decreased after the already delayed rise"}]}
{"substance": "SEQ ID NO: 311: second peptide of Table 9, frameshift predicted from mouse microsatellite locus (ICMSPPLLWATLQAPETTSAACKASYRPEGLYL; Synthetic or recombinant sequence)", "values": [{"measurement": "prophylactic inhibition of tumor progression (tumor size)", "setting": "4T1 tumor cells", "value": "effective in prophylactically inhibiting tumor progression"}]}
{"substance": "SEQ ID NO: 310: first peptide of Table 9, frameshift predicted from mouse microsatellite locus (TLCMEVMLRWNTRELGYLYLQLCFLNTHFLHTSQEEKLLTLGRFLTWTSRCGSFVIRPL; Synthetic or recombinant sequence)", "values": [{"measurement": "prophylactic inhibition of tumor progression (tumor size)", "setting": "4T1 tumor cells", "value": "effective in prophylactically inhibiting tumor progression"}]}
{"substance": "AVLLMCQLYQpwmckeyyrll* (AVLLMCQLYQPWMCKEYYRLL; Synthetic or recombinant sequence) [FS 6-21, frameshift novopeptide, 95 bp deletion]", "values": [{"measurement": "CTL killing of tumor cells", "setting": "SW480 tumor cells", "value": "able to kill MHC-matched tumor cells pulsed with FS 6-21 peptide"}, {"measurement": "antibody reactivity in sera of cancer patients", "setting": "[3]", "value": "one cancer patient in 23"}]}
